Experimental data published in patent publication US20220162169A1, “6-OXO-1,6-DIHYDROPYRIDAZINE PRODRUG DERIVATIVE, PREPARATION METHOD THEREFOR, AND APPLICATION THEREOF IN MEDICINE” (JIANGSU HENGRUI MEDICINE CO., LTD., priority 2019, published 2022).
Values after ≈ are worked out from the molar mass of the structure shown.

What was measured:
[1] = Solubility in PBS solution (pH 7.4) at room temperature; format: physicochemical; conditions: PBS solution (pH 7.4), aqueous buffer, kinetic from dmso stock; PBS pH 7.4, room temperature, 24 hours shaking, 1% DMSO, average of two measurements; read-out: Solubility in PBS pH7.4
Method: Test Example 1. Solubility of the Compound of the Present Disclosure in PBS Solution (pH 7.4) at Room Temperature
2.1 Formulation of the PBS solution (pH 7.4): 0.57 g of NaH2PO42.H2O, 5.55 g of Na2HPO4.12H2O and 6.48 g of NaCl were weighed, followed by the addition of ultra-pure water. The pH was adjusted to 7.4±0.05 with 1 M NaOH or 1 M HCl. Water was added until the volume reached 1 L. The PBS solution was stored in a refrigerator at 4° C. (the storage life was 6 months).
2.2 Formulation of the solution of the compound in PBS 7.4: An appropriate amount of the test compound was weighed, and dissolved in DMSO or a mixed solution of DMSO:acetonitrile:ethanol (1:1:1) to obtain a 10 mM stock solution of the test compound. 10 μL of the stock solution of the test compound and 990 μL of the PBS solution (pH 7.4) were precisely measured and placed in a 2 mL sample vial and mixed well, and the DMSO concentration of the final solution was 1% (v/v). This solution was formulated in duplicate, shaken on a plate bed at room temperature for 24 hours, and centrifuged at 5000 rpm for 20 minutes. The supernatant was analyzed by the liquid chromatograph.
2.3 Formulation of the reference solution: 10 μL of the stock solution of the test sample (concentration: 10 mM, dissolved in DMSO) and 990 μL of an organic mixed solvent (usually DMSO:acetonitrile:ethanol=1:1:1) were precisely measured and placed in a 2 mL sample vial, and mixed well to obtain a clear 100 μM sample solution. The solution was filtered through a 0.45 μm organic phase microporous filter membrane, and the filtrate was analyzed by the liquid chromatograph.
Solubility (μM)=peak area of the sample/peak area of the reference*concentration of the reference (μM)*sample solution dilution factor
The average of two measurements was used as the final solubility.

[2] = Pharmacokinetics assay in SD rats after intragastric administration, plasma LC/MS/MS; format: in vivo
Method: Test Example 2. Pharmacokinetics Assay of the Compounds of the Present Disclosure in Rats
SD rats were used as test animals. The drug concentration in plasma at different time points was determined by LC/MS/MS method after oral administration of the compounds of Example 2, Example 6 and Example 7 to SD rats. The pharmacokinetic behavior of the compounds of the present disclosure was studied and evaluated in SD rats.
Forty SD rats (half male and half female, equally divided into ten groups) were purchased from Shanghai Jiesijie Laboratory Animal Co., LTD. (Certificate No.: SCXK(Shanghai) 2013-0006).
An appropriate amount of the compound of Example 2 was weighed, followed by the addition of 5% of DMSO, 5% of tween 80 and 90% of normal saline successively to obtain a colorless, clear and transparent solution.
An appropriate amount of the compound of Example 2 was weighed, followed by the addition of 0.5% sodium carboxymethyl cellulose (containing 0.5% tween 80) to obtain a white homogeneous suspension.
An appropriate amount of the compound of Example 6 was weighed, and added to 200 mM (5% PVPK30+5% TPGS) Na2HPO4 solution (pH=9) to obtain a homogeneous suspension.
An appropriate amount of the compound of Example 7 was weighed, and added to 200 mM (5% PVPK30+5% TPGS) Na2HPO4 solution (pH=9) to obtain a homogeneous suspension.
After an overnight fast, the SD rats were intragastrically administered the test compounds. Regarding to the compound of Example 2 (formulation: 5% of DMSO, 5% of tween 80 and 90% of normal saline), the administration dose was 2 mg/kg, the administration volume was 10 mL/kg, and the administration concentration was 0.2 mg/mL. Regarding to the compound of Example 2 (formulation: 0.5% sodium carboxymethyl cellulose (containing 0.5% tween 80)), the administration dose was 10, 30, 100 mg/kg, the administration volume was 10 mL/kg, and the administration concentration was 1, 3, 10 mg/mL. Regarding to the compound of Example 6, the administration dose was 100, 300, 900 mg/kg, the administration volume was 10 mL/kg, and the administration concentration was 10, 30, 90 mg/mL. Regarding to the compound of Example 7, the administration dose was 10, 30, 100 mg/kg, the administration volume was 10 mL/kg, and the administration concentration was 1, 3, 10 mg/mL.
After an overnight fast, the SD rats were intragastrically administered the test compounds. 0.2 ml of blood was taken from the orbit before the administration and at 0.5, 1.0, 2.0, 4.0, 6.0, 8.0, 11.0 and 24.0 hours after the administration. The samples were stored in heparinized tubes, and centrifuged for 10 minutes at 3500 rpm to separate the blood plasma. The plasma samples were stored at −20° C. The SD rats were fed 2 hours after the administration.
The content of the test compound in the plasma of SD rats after administration of the test compound at different concentrations was determined: 25 μL of SD rat plasma at each time point after the administration was taken, followed by the addition of 50 μL of the internal standard camptothecin solution (100 ng/mL) and 200 μL of acetonitrile. The resulting solution was vortex-mixed for 5 minutes, and centrifuged for 10 minutes (3700 rpm). 3.0 μL of the supernatant was taken from the plasma samples of the compound of Example 2 (the group at the administration dose of 2 mg/kg) for LC/MS/MS analysis. 2.0 μL of the supernatant was taken from the plasma samples of the compound of Example 2 (the group at the administration dose of 10, 30, or 100 mg/kg) for LC/MS/MS analysis. 0.2 μL of the supernatant was taken from the plasma samples of the compound of Example 6 for LC/MS/MS analysis. 1 μL of the supernatant was taken from the plasma samples of the compound of Example 7 for LC/MS/MS analysis. […]

NaV1.8 ion channel = biological target: T1, NaV1.8 ion channel (Homo sapiens, UniProt Q9Y5Y9); assay: Manual patch clamp, inhibitory activity on NaV1.8 stably expressed on HEK293 cells; format: cell-based; conditions: HEK293 cells stably expressing NaV1.8, manual patch clamp, resting protocol (clamped at -80 mV, depolarized to 10 mV), 1 μM TTX; read-out: IC50 on inhibiting the Nav1.8 channel activity
T1 construct: expressed in transfected cells
Description: Test Example 3. Determination of the Inhibitory Activity of the Compounds of the Present Disclosure on NaV1.8
The purpose of the experiment is to investigate the effect of the compounds on NaV1.8 ion channel in an in vitro experiment, wherein the NaV1.8 ion channel is stably expressed on HEK293 cells. After the NaV1.8 current becomes stable, the NaV1.8 currents before and after the administration of the compound are compared so as to obtain the effect of the compound on the NaV1.8 ion channel.
Except for NaOH and KOH used for acid titration and base titration, all the compounds used for formulating the extracellular fluid and intracellular fluid were purchased from Sigma (St. Louis, Mo.). Extracellular fluid (mM): NaCl, 137; KCl, 4; CaCl2, 1.8; MgCl2, 1; HEPES, 10; glucose, 10; pH 7.4 (NaOH titration). Intracellular fluid (mM): aspartic acid, 140; MgCl2, 2; EGTA, 11; HEPES, 10; pH 7.2 (CsOH titration). All solutions of test compound and control compound contained 1 μM TTX.
The test compound was dissolved in dimethyl sulfoxide (DMSO) at a stock concentration of 9 mM. The stock solution of the test compound was dissolved in the extracellular fluid on the day of the test and formulated into the required concentration.
1) The compound was formulated into solutions with specified concentrations, the solutions were added to the pipelines respectively in order from low to high concentration, and the pipelines were marked.
2) The cell was transferred to the perfusion tank. A positive pressure was applied to the electrode. The tip of the electrode touched the cell. The three-way valve of the air extracting device was adjusted to a three-way state. […]
The cell was clamped at −80 mV. […] The maximum current caused by the square wave was measured. […] After the response became stable, the blocking intensity was calculated. […]
The inhibitory activity of the compounds of the present disclosure on NaV1.8 was determined by the above test, and the resulting IC50 values are shown in Table 3.

T1 sequence (Q9Y5Y9 whole entry): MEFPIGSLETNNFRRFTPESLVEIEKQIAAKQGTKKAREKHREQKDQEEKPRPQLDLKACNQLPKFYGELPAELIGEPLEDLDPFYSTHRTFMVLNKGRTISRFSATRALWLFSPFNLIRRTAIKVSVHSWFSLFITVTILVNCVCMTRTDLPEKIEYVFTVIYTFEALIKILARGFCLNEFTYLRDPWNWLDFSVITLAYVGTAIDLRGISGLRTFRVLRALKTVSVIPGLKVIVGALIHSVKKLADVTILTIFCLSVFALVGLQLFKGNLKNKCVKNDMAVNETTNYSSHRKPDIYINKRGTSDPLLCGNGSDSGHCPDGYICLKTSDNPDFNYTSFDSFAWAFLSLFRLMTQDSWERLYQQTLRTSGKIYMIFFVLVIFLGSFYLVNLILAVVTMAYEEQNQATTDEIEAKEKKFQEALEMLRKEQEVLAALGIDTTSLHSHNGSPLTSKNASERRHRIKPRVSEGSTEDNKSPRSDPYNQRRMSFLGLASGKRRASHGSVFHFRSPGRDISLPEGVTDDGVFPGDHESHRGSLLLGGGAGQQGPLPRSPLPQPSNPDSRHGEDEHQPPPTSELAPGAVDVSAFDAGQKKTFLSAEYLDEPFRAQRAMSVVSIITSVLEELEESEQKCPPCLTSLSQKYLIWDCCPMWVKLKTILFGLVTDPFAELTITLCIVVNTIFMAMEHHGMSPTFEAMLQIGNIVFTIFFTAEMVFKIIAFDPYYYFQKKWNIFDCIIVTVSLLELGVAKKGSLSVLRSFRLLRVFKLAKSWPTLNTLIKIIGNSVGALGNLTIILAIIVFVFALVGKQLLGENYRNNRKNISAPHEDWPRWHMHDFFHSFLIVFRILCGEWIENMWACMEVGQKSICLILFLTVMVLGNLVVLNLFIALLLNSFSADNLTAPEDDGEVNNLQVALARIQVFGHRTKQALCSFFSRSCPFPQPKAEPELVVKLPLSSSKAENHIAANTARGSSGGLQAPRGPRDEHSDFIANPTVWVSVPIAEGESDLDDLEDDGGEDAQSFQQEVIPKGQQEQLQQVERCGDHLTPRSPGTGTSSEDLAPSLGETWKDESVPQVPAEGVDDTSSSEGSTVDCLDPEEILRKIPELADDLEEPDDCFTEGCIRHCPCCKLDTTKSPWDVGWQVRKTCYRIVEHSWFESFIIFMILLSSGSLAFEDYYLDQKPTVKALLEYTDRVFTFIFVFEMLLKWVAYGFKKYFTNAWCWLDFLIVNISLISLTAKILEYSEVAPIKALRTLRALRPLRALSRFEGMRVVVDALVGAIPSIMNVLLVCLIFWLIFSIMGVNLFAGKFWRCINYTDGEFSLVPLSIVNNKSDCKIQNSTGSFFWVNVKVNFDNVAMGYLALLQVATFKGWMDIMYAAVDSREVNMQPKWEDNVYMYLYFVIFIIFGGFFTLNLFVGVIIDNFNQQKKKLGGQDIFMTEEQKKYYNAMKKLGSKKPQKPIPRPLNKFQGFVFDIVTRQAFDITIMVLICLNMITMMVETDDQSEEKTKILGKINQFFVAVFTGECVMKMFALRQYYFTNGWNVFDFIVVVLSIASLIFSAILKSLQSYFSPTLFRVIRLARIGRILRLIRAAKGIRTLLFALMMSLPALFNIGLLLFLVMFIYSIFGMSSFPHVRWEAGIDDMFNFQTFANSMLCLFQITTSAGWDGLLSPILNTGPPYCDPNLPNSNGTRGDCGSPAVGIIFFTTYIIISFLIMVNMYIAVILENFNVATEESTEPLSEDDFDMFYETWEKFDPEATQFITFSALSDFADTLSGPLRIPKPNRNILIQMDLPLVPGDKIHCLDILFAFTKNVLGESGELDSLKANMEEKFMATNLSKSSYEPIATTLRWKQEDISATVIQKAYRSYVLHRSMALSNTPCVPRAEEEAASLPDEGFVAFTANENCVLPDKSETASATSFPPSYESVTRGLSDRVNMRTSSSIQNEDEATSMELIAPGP

For `[2H]C([2H])([2H])Oc1cc(F)ccc1Oc1cc(C(F)(F)F)c(Cl)cc1C(=O)Nc1cnn(COC(=O)CCC(=O)O)c(=O)c1` [Example 7, 4-((4-(5-Chloro-2-(4-fluoro-2-(methoxy-d3)phenoxy)-4-(trifluoromethyl)benzamido)-6-oxopyridazin-1(6H)-yl)methoxy)-4-oxobutanoic acid], the solubility at 24 h [1] was 34.5 µM (≈ 20.4 µg/mL), the “Detection of the administered prodrug compound itself in rat plasma” value ([2]; after intragastric administration, LC/MS/MS) was “not detected” and the “In vivo conversion of the prodrug into its metabolite” value ([2]; intragastric administration) was “converted into compound 7d in vivo”. It also gave an IC50 (NaV1.8 ion channel) of 14.5 nM.
